Reference: patent publication US20170275261A1, “1,3,4-THIADIAZOLES HAVING A HERBICIDAL ACTIVITY, THEIR AGRONOMICAL COMPOSITIONS AND RELATIVE USE” (ISAGRO S.P.A., priority 2014, published 2017)

Columns and labels:
Format in all cases: in vivo
Details in all cases: dose 250 g/ha, fifteen days after treatment, damage vs control
Setaria viridis [1] = experiment: Herbicidal activity in post-emergence
Description: (§1) The herbicidal activity in post-emergence of the compounds of the invention was evaluated according to the following operating procedures.
(§2) The plant species of interest (weeds or crops) were seeded in vases having an upper diameter of 10 cm, a height of 10 cm and containing sandy earth. 10 vases were used for each plant species.
(§3) Water was added to each vase in a suitable quantity for the germination of the seeds. The vases were then divided into two groups, each containing 5 vases for each weed or crop.
(§4) The second group was only treated with a hydroacetonic solution containing acetone at 20% by volume and Tween 20 at 0.5% by weight, and was used as a comparison (control).
(§5) All the vases were kept under observation in a conditioned environment under the following environmental conditions: • temperature: 24° C.; • relative humidity: 60%; • photo-period: 16 hours; • light intensity: 12,000 lux.
(§6) Every two days the vases were uniformly watered to ensure a sufficient humidity degree for a good growth of the plants.

Digitaria sanguinalis [2] = experiment: Herbicidal activity in post-emergence
Description: as §1, §2, §3, §4, §5, §6

Poa Annua [3] = experiment: Herbicidal activity in post-emergence
Description: as §1, §2, §3, §4, §5, §6

Lolium rigidum [4] = experiment: Herbicidal activity in post-emergence
Description: as §1, §2, §3, §4, §5, §6

Eleusine indica [5] = experiment: Herbicidal activity in post-emergence
Description: as §1, §2, §3, §4, §5, §6

Apera spica-venti [6] = experiment: Herbicidal activity in post-emergence
Description: as §1, §2, §3, §4, §5, §6

Alopecurus myosuroides [7] = experiment: Herbicidal activity in post-emergence
Description: as §1, §2, §3, §4, §5, §6

Echinochloa crusgalli [8] = experiment: Herbicidal activity in post-emergence
Description: as §1, §2, §3, §4, §5, §6

Setaria viridis [9] = experiment: Herbicidal activity in pre-emergence
Description: (§7) The herbicidal activity in pre-emergence of the compounds of the invention was evaluated according to the following operating procedures.
as §2, §3
(§8) One day after seeding, the first group of vases was treated with a dispersion having the following composition:
(§9) Said dispersion was prepared by adding a compound of the present invention at the desired concentration to a hydroacetonic solution containing acetone at 20% by volume and Tween 20 at 0.5% by weight, with respect to the total weight of the dispersion.
(§10) The desired concentration of a compound of the present invention corresponds to the concentration necessary for allowing the application of an effective dose of said compound equal to 250 g/ha to the plant species of interest.
as §4, §5, §6

Digitaria sanguinalis [10] = experiment: Herbicidal activity in pre-emergence
Description: as §7, §2, §3, §8, §9, §10, §4, §5, §6

Poa Annua [11] = experiment: Herbicidal activity in pre-emergence
Description: as §7, §2, §3, §8, §9, §10, §4, §5, §6

Lolium rigidum [12] = experiment: Herbicidal activity in pre-emergence
Description: as §7, §2, §3, §8, §9, §10, §4, §5, §6

Eleusine indica [13] = experiment: Herbicidal activity in pre-emergence
Description: as §7, §2, §3, §8, §9, §10, §4, §5, §6

Apera spica-venti [14] = experiment: Herbicidal activity in pre-emergence
Description: as §7, §2, §3, §8, §9, §10, §4, §5, §6

Alopecurus myosuroides [15] = experiment: Herbicidal activity in pre-emergence
Description: as §7, §2, §3, §8, §9, §10, §4, §5, §6

Echinochloa crusgalli [16] = experiment: Herbicidal activity in pre-emergence
Description: as §7, §2, §3, §8, §9, §10, §4, §5, §6

| SMILES | Herbicidal activity in post-emergence (Setaria viridis [1]) | Herbicidal activity in post-emergence (Digitaria sanguinalis [2]) | Herbicidal activity in post-emergence (Poa Annua [3]) | Herbicidal activity in post-emergence (Lolium rigidum [4]) | Herbicidal activity in post-emergence (Eleusine indica [5]) | Herbicidal activity in post-emergence (Apera spica-venti [6]) | Herbicidal activity in post-emergence (Alopecurus myosuroides [7]) | Herbicidal activity in post-emergence (Echinochloa crusgalli [8]) | Herbicidal activity in pre-emergence (Setaria viridis [9]) | Herbicidal activity in pre-emergence (Digitaria sanguinalis [10]) | Herbicidal activity in pre-emergence (Poa Annua [11]) | Herbicidal activity in pre-emergence (Lolium rigidum [12]) | Herbicidal activity in pre-emergence (Eleusine indica [13]) | Herbicidal activity in pre-emergence (Apera spica-venti [14]) | Herbicidal activity in pre-emergence (Alopecurus myosuroides [15]) | Herbicidal activity in pre-emergence (Echinochloa crusgalli [16]) |
| --- | --- | --- | --- | --- | --- | --- | --- | --- | --- | --- | --- | --- | --- | --- | --- | --- |
| CCc1nnc([S+]([O-])Cc2c(C(F)(F)F)nn(C)c2OCC(F)(F)F)s1 (stereo not shown) [Nr. 121] | 4 (71-90% of damage) | 5 (91% of damage-death of the plant) | 5 (91% of damage-death of the plant) | 4 (71-90% of damage) | 5 (91% of damage-death of the plant) | 5 (91% of damage-death of the plant) | 4 (71-90% of damage) | 5 (91% of damage-death of the plant) | 5 (91% of damage-death of the plant) | 5 (91% of damage-death of the plant) | 5 (91% of damage-death of the plant) | 5 (91% of damage-death of the plant) | 5 (91% of damage-death of the plant) | 5 (91% of damage-death of the plant) | 5 (91% of damage-death of the plant) | 5 (91% of damage-death of the plant) |
| O=S(=O)(c1nnc(C(F)(F)F)s1)c1c(Cl)cccc1Cl [CR1, 2-(2,6-dichlorophenylsulfonyl)-5-(trifluoromethyl)-1,3,4-thiadiazole, reference compound] | 0 (0-10% of damage) | 0 (0-10% of damage) | 0 (0-10% of damage) | 0 (0-10% of damage) | 0 (0-10% of damage) | 0 (0-10% of damage) | 0 (0-10% of damage) | 0 (0-10% of damage) | 0 (0-10% of damage) | 0 (0-10% of damage) | 0 (0-10% of damage) | 0 (0-10% of damage) | 0 (0-10% of damage) | 0 (0-10% of damage) | 0 (0-10% of damage) | 0 (0-10% of damage) |
| Cc1nnc([S+]([O-])Cc2c(Cl)cccc2Cl)s1 (stereo not shown) [Nr. 1, 2-[(2,6-dichlorobenzyl)-sulfinyl]-5-methyl-1,3,4-thiadiazole] | 4 (71-90% of damage) | 5 (91% of damage-death of the plant) | 5 (91% of damage-death of the plant) | 4 (71-90% of damage) | 5 (91% of damage-death of the plant) | 5 (91% of damage-death of the plant) | 4 (71-90% of damage) | 4 (71-90% of damage) | 4 (71-90% of damage) | 5 (91% of damage-death of the plant) | 5 (91% of damage-death of the plant) | 4 (71-90% of damage) | 5 (91% of damage-death of the plant) | 5 (91% of damage-death of the plant) | 4 (71-90% of damage) | 4 (71-90% of damage) |
| Cc1nnc([S+]([O-])Cc2c(C(F)(F)F)nn(C)c2OCC(F)(F)F)s1 (stereo not shown) [Nr. 9] | 4 (71-90% of damage) | 5 (91% of damage-death of the plant) | 5 (91% of damage-death of the plant) | 4 (71-90% of damage) | 5 (91% of damage-death of the plant) | 5 (91% of damage-death of the plant) | 5 (91% of damage-death of the plant) | 5 (91% of damage-death of the plant) | 5 (91% of damage-death of the plant) | 5 (91% of damage-death of the plant) | 5 (91% of damage-death of the plant) | 5 (91% of damage-death of the plant) | 5 (91% of damage-death of the plant) | 5 (91% of damage-death of the plant) | 5 (91% of damage-death of the plant) | 5 (91% of damage-death of the plant) |
